Results as given in patent publication US6512136B1, “Substituted 2-phenyl-1-(3,4-dihydroxy-5-nitrophenyl)-1-ethanones, their use in the treatment of some central and peripheral nervous system disorders and pharmaceutical compositions containing them” (Portela & C.A., S.A., priority 1998, dated 2003).

T1: rat brain COMT (Rattus norvegicus, UniProt P22734)
T1 construct: Aliquots of 0.5 ml of liver and whole brain homogenates were preincubated; from tissue; host or cells: whole brain homogenate of male Wistar rats
T1 sequence (P22734 1-264): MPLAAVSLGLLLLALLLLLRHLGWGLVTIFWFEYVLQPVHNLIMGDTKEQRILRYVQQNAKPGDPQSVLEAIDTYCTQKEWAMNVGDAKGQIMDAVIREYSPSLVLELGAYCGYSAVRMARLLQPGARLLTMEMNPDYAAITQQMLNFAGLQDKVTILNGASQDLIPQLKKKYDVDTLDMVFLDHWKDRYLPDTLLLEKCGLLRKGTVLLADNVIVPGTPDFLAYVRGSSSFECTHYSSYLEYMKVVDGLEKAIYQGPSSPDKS

T2: rat liver COMT (Rattus norvegicus, UniProt P22734)
T2 construct: Aliquots of 0.5 ml of liver and whole brain homogenates were preincubated; from tissue; host or cells: liver homogenate of male Wistar rats
T2 sequence (P22734 44-264 limits assumed): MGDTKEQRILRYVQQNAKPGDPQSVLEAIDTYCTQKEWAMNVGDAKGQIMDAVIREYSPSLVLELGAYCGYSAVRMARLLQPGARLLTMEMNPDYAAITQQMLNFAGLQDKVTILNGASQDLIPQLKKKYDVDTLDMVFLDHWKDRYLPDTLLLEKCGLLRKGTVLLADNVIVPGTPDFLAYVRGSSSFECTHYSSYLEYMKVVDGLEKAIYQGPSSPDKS

T3: brain COMT (Rattus norvegicus, UniProt P22734)
T3 construct: Aliquots of 0.5 ml of liver and whole brain homogenates were preincubated; from tissue; host or cells: whole brain homogenate of male Wistar rats
T3 sequence (P22734 1-264): T1 sequence (P22734 1-264)

T4: liver COMT (Rattus norvegicus, UniProt P22734)
T4 construct: Aliquots of 0.5 ml of liver and whole brain homogenates were preincubated; from tissue; host or cells: liver homogenate of male Wistar rats
T4 sequence (P22734 44-264 limits assumed): T2 sequence (P22734 44-264 limits assumed)

B1: rat brain COMT (Rattus norvegicus) (protein)
chain: T1 sequence (P22734 1-264)
B2: rat liver COMT (Rattus norvegicus) (protein)
chain: T2 sequence (P22734 44-264 limits assumed)

Experiments:
rat brain COMT = target: T1, rat brain COMT; assay: In vitro COMT inhibition, rat brain homogenate (methylation of adrenaline to metanephrine); format: biochemical
rat liver COMT = target: T2, rat liver COMT; assay: In vitro COMT inhibition, rat liver homogenate (methylation of adrenaline to metanephrine); format: biochemical
brain COMT = target: T3, brain COMT; assay: Brain COMT activity in homogenates after administration of test compounds by gastric tube; format: in vivo; conditions: for % inhibition of COMT activity, brain, 0.5 h / % inhibition of COMT activity, brain, 1 h / % inhibition of COMT activity, brain, 3 h / % inhibition of COMT activity, brain, 6 h / % inhibition of COMT activity, brain, 9 h: rat brain homogenate, mean ± S.E.M., n=4; for % inhibition of COMT activity, brain, 0.5 h: 0.5 h after administration by gastric tube; for % inhibition of COMT activity, brain, 1 h: 1 h after administration by gastric tube; for % inhibition of COMT activity, brain, 3 h: 3 h after administration by gastric tube; for % inhibition of COMT activity, brain, 6 h: 6 h after administration by gastric tube; for % inhibition of COMT activity, brain, 9 h: 9 h after administration by gastric tube
liver COMT = target: T4, liver COMT; assay: Liver COMT activity in homogenates after administration of test compounds by gastric tube; format: in vivo; conditions: for % inhibition of COMT activity, liver, 0.5 h / % inhibition of COMT activity, liver, 1 h / % inhibition of COMT activity, liver, 3 h / % inhibition of COMT activity, liver, 6 h / % inhibition of COMT activity, liver, 9 h: rat liver homogenate, mean ± S.E.M., n=4; for % inhibition of COMT activity, liver, 0.5 h: 0.5 h after administration by gastric tube; for % inhibition of COMT activity, liver, 1 h: 1 h after administration by gastric tube; for % inhibition of COMT activity, liver, 3 h: 3 h after administration by gastric tube; for % inhibition of COMT activity, liver, 6 h: 6 h after administration by gastric tube; for % inhibition of COMT activity, liver, 9 h: 9 h after administration by gastric tube
rats = assay: Behavioural testing: potentiation of amphetamine-induced hyperactivity (locomotor activity, stereotypies); format: in vivo, rat; conditions: for pattern of locomotor activity and stereotyped behaviour versus corresponding controls: given p.o. six hours before amphetamine challenge (0.5, 2.0, 4.0 mg/kg s.c.)
[1] = literature values (Dingemanse 1995; Keranen 1994); cited from earlier work
[2] = substrate: CNCC(O)c1ccc(O)c(O)c1; assay: cells, lysate or membranes named; conditions: saturation experiments, 95% confidence intervals, pH 7.8
[3] = COMT inhibitor 30 mg/kg p.o. 6 h before amphetamine challenge (s.c.)

Molecule	IC50 (rat brain COMT) [nM]	IC50 (rat liver COMT) [nM]	% inhibition of COMT activity, brain, 0.5 h (brain COMT) [%]	% inhibition of COMT activity, brain, 1 h (brain COMT) [%]	% inhibition of COMT activity, brain, 3 h (brain COMT) [%]	% inhibition of COMT activity, brain, 6 h (brain COMT) [%]	% inhibition of COMT activity, brain, 9 h (brain COMT) [%]	% inhibition of COMT activity, liver, 0.5 h (liver COMT) [%]	% inhibition of COMT activity, liver, 1 h (liver COMT) [%]	% inhibition of COMT activity, liver, 3 h (liver COMT) [%]	% inhibition of COMT activity, liver, 6 h (liver COMT) [%]	% inhibition of COMT activity, liver, 9 h (liver COMT) [%]	further results
O=C(CCCCc1ccccc1)c1cc(O)c(O)c([N+](=O)[O-])c1 [E]	6.7	1280	87.4 ± 1.3	74.2 ± 4.2	25.0 ± 3.1	−5.6 ± 7.5	−6.7 ± 5.0	99.2 ± 0.1	98.9 ± 0.3	88.1 ± 3.9	36.0 ± 6.3	−4.0 ± 8.0	inhibitory profile on brain versus liver COMT after oral administration (liver COMT; rat, comparison of brain and liver COMT inhibition (Table 2)): much more potent upon liver COMT than brain COMT
O=C(c1ccccc1)c1cc(O)c(O)c([N+](=O)[O-])c1 [Compound A, 3,4-dihydroxy-5-nitrobenzophenone]	7.1	935	96.3 ± 0.4	96.8 ± 0.3	97.0 ± 0.3	85.8 ± 7.5	34.9 ± 6.0	99.0 ± 0.2	98.7 ± 0.2	96.9 ± 2.5	80.5 ± 7.3	31.7 ± 5.5	
CNCC(O)c1ccc(O)c(O)c1 (centres unmarked) [adrenaline, reference compound]													Vmax of adrenaline O-methylation, brain (rat brain COMT; whole brain homogenate, saturation experiments): 1.35±0.02 nmol mg protein^−1 h^−‘; Vmax of adrenaline O-methylation, liver (rat liver COMT; liver homogenate, saturation experiments): 61.6±3.8 nmol mg protein^−1 h^−‘
O=C(CCCc1ccccc1)c1cc(O)c(O)c([N+](=O)[O-])c1 [D]	2.9	1850	85.1 ± 1.7	69.3 ± 5.1	33.5 ± 4.4	26.7 ± 4.0	12.2 ± 5.8	97.5 ± 0.1	95.3 ± 0.8	67.5 ± 7.8	52.0 ± 9.5	39.0 ± 13.2	
O=C(Cc1ccccc1)c1cc(O)c(O)c([N+](=O)[O-])c1 [Compound B, 1-(3,4-Dihydroxy-5-nitrophenyl)-2-phenyl-1-ethanone]													pattern of locomotor activity and stereotyped behaviour versus corresponding controls (rats): same pattern of locomotor activity and stereotyped behaviour as their corresponding controls
Cc1ccc(C(=O)c2cc(O)c(O)c([N+](=O)[O-])c2)cc1 [Tolcapone, 3,4-dihydroxy4′-methyl-5-nitrobenzophenone, reference compound]			98.9 ± 0.1	98.7 ± 0.2	97.0 ± 0.5	85.8 ± 8.2	77.5 ± 1.8	100.0 ± 0.0	99.9 ± 0.1	98.0 ± 0.7	94.1 ± 0.3	67.0 ± 4.0	inhibition in brain and liver COMT at 6 h and 9 h after administration (brain COMT; rat, oral, 6 h and 9 h, brain and liver): marked inhibition; ED50 (brain COMT; rat, po, read-out: ED50 for inhibiting brain COMT): 1.6 ± 0.1 mg/kg; ED50 (liver COMT; rat, po, read-out: ED50 for inhibiting liver COMT): 0.7 ± 0.1 mg/kg; duration of stereotyped behavior in rats given 4.0 mg/kg amphetamine (rats; [3]): increased two-fold; locomotor activity in rats given 4.0 mg/kg amphetamine (rats; [3]): marked decrease in locomotor activity; locomotor activity in rats treated with 0.5 and 2.0 mg/kg amphetamine (rats; [3]): significantly increase locomotor activity; half-life [1]: 2 h
O=C(CCc1ccccc1)c1cc(O)c(O)c([N+](=O)[O-])c1 [C]	3.1	829	89.9 ± 0.7	86.2 ± 0.5	59.8 ± 5.8	33.4 ± 7.0	0.4 ± 5.3	98.4 ± 0.3	97.8 ± 0.2	95.0 ± 0.7	70.8 ± 12.8	39.9 ± 11.1	
CC(N)Cc1ccccc1 (centres unmarked) [amphetamine]													duration of stereotypies during the 600 s observation period (rats; amphetamine 4.0 mg/kg s.c. alone): 250 s; horizontal activity and rearing (rats; amphetamine 0.5 and 2.0 mg/kg s.c. alone): dose-dependent increases
CCN(CC)C(=O)/C(C#N)=C/c1cc(O)c(O)c([N+](=O)[O-])c1 [Entacapone, (E)-2-cyano-N,N-diethyl-3-(3,4-dihydroxy-5-nitrophenyl)acrylamide]													pattern of locomotor activity and stereotyped behaviour versus corresponding controls (rats): same pattern of locomotor activity and stereotyped behaviour as their corresponding controls
B1													Km ([2]; other: whole brain homogenate): 0.7 µM
B2													Km ([2]; other: liver homogenate): 238.5 (128.5; 348.5) μM
